Data from the supplement of paper PMC10307832.

Assays:
Assay in all cases: relative viability (nuclei count vs DMSO), 5 days (fraction); higher = more cells survive
[1] = compound: C1CN(CCN1)C2=CC=C(C=C2)C3=CN4C(=C(C=N4)C5=CC=NC6=CC=CC=C56)N=C3 [DM3189] + CC(=O)Nc1cccc(-n2c(=O)n(C3CC3)c(=O)c3c(Nc4ccc(I)cc4F)n(C)c(=O)c(C)c32)c1 [Trametinib] (partner 0.02 µM)
How it was run: (§1)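 Relative viability divides the nuclei count in treated wells by that in vehicle wells. Lung cancer cell lines were seeded in 1536-well plates, dosed by pin tool the next day, and fixed and stained after 5 days in one step with final 0.05% Triton X-100, 1% formaldehyde and 1 ug/ml Hoechst. Dosing was a single drug or a fixed anchor-drug dose plus five library-drug doses (not always all listed) in √10 steps, and values are medians of duplicate plates imaged at 4×.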

[2] = compound: C1CN(CCN1)C2=CC=C(C=C2)C3=CN4C(=C(C=N4)C5=CC=NC6=CC=CC=C56)N=C3 [DM3189] + CC1(C)CCC(c2ccc(Cl)cc2)=C(CN2CCN(c3ccc(C(=O)NS(=O)(=O)c4ccc(N[C@H](CCN5CCOCC5)CSc5ccccc5)c(S(=O)(=O)C(F)(F)F)c4)cc3)CC2)C1 [Navitoclax] (partner 0.5 µM)
How it was run: as §1

[3] = compound: C1CN(CCN1)C2=CC=C(C=C2)C3=CN4C(=C(C=N4)C5=CC=NC6=CC=CC=C56)N=C3 [DM3189] + COc1cccc2cc(-c3nc([C@H]4CC[C@H](C(=O)O)CC4)n4ncnc(N)c34)[nH]c12 [OSI-027] (partner 0.5 µM)
How it was run: as §1

[4] = compound: C1CN(CCN1)C2=CC=C(C=C2)C3=CN4C(=C(C=N4)C5=CC=NC6=CC=CC=C56)N=C3 [DM3189] + Cc1cc(Nc2cc(N3CCN(C)CC3)nc(Sc3ccc(NC(=O)C4CC4)cc3)n2)n[nH]1 [Tozasertib] (partner 0.1 µM)
How it was run: as §1

[5] = compound: C1CN(CCN1)C2=CC=C(C=C2)C3=CN4C(=C(C=N4)C5=CC=NC6=CC=CC=C56)N=C3 [DM3189] + O=C(c1cc(Cc2n[nH]c(=O)c3ccccc23)ccc1F)N1CCN(C(=O)C2CC2)CC1 [Olaparib] (partner 8 µM)
How it was run: as §1

Cell Line	relative viability ([1]; first compound 0.08 µM)	relative viability ([1]; first compound 0.8 µM)	relative viability ([1]; first compound 2.53 µM)	relative viability ([2]; first compound 0.08 µM)	relative viability ([2]; first compound 0.253 µM)	relative viability ([2]; first compound 0.8 µM)	relative viability ([2]; first compound 2.53 µM)	relative viability ([3]; first compound 0.08 µM)	relative viability ([3]; first compound 0.253 µM)	relative viability ([3]; first compound 0.8 µM)	relative viability ([3]; first compound 2.53 µM)	relative viability ([4]; first compound 0.08 µM)	relative viability ([4]; first compound 0.253 µM)	relative viability ([4]; first compound 0.8 µM)	relative viability ([4]; first compound 2.53 µM)	relative viability ([5]; first compound 0.08 µM)	relative viability ([5]; first compound 0.8 µM)	relative viability ([5]; first compound 2.53 µM)	relative viability ([1]; first compound 0.253 µM)	relative viability ([5]; first compound 0.253 µM)
EKVX	0.325	0.328	0.338	0.816	0.899	0.9	1.07	0.769	0.511	0.729	0.623	0.44	0.407	0.449	0.352	1.06	0.517	0.814		
EMC-BAC-2	0.925	0.891	1.04	1.13	1.14	1.13	1.02	0.403	0.341	0.359	0.418	0.302	0.283	0.254	0.323	0.5	0.339	0.492	0.877	0.455
EPLC-272H	0.285	0.267	0.322	1.25	1.07	1.11	1.08	0.356	0.261	0.238	0.254	0.418	0.252	0.235	0.253	0.669	0.735	0.565	0.326	0.714
H3255	0.789	0.513	0.732	0.685	0.577	0.559	0.5	0.875	0.541	0.625	0.611	0.271	0.604	0.715	0.762	0.576	0.547	0.627	0.731	0.573
HARA	0.674	0.712	0.944	1.13	1.09	1.08	1.21	0.713	0.525	0.292	0.539	0.0946	0.0943	0.0953	0.0845	1.23	0.579	0.654	0.736	0.733
HCC-15	0.447	0.406	0.414	0.687	0.675	0.646	0.735	0.757	0.599	0.524	0.673	0.246	0.44	0.35	0.375	0.737	0.518	0.591	0.431	0.724
HCC-44	1.07	0.897	1.2	1.12	1.11	0.813	1.44	0.631	0.482	0.373	0.596	0.999	0.912	0.727	0.954	0.996	0.944	0.931	1.09	0.918
HCC-78	0.64	0.541	0.624	0.877	0.725		0.976	0.383	0.35	0.371	0.358	0.263	0.464	0.411	0.465	0.763	0.586	0.944	0.588	0.659
